Where “and” joins values, the source holds several entries; their conditions need not be identical. Identical values can stand only once.
Experiments:
[1] = biological target: CfEcR-DEF mutant V107I/Y127E/G (Choristoneura fumiferana, UniProt O77255, INS541G/V390I/Y410E); assay: GAL4-driven luciferase reporter assay in NIH3T3 cells; format: cell-based
Procedure: (§1) This construct was prepared in the same way as in switch 1.1 above except wild-type CfEcR-DEF was replaced with mutant CfEcR-DEF comprising a ligand binding domain comprising a substitution mutation selected from Table 1 below.
The Gal-4-CfEcR-DEF(VYG) mutant was created by inserting an extra glycine at the C-terminal end of EcR substitution mutant V107I/Y127E [CfECR(VY)] by PCR. Essentially, this was done in two steps: PCR-amplification of CfEcR-DEF(VYG) and substitution of the CfEcR(VY) in the vector GAL4-CfEcR DEF(VY) pBIND 1-9 with the PCR-amplified CfEcR-DEF(VYG). The CfEcR-DEF region (with the extra glycine) was amplified by using the vector GAL4-CfEcR DEF(VY) pBIND 1-9 as template and the following PCR primers: […]
(§2) DNAs were transfected into mouse NIH3T3 cells (ATCC) as follows. Standard methods for culture and maintenance of the cells were followed. Cells were harvested and plated 96-well plates at 2,500 cells per well, in 50 μL of growth medium containing 10% fetal bovine serum (FBS). Twenty-four hours later, the cells were treated with 35 μL of serum-free growth medium containing either dimethylsulfoxide (DMSO; control) or a DMSO solution of ligand. The cells were then transfected using Superfect (Qiagen Inc.) transfection reagent. For each well, 0.625 μL of Superfect was mixed with 14.2 μL of serum-free growth medium. 0.16 μg of reporter construct and 0.04 μg of each receptor construct were added to the transfection reagent mix. The contents of the transfection mix were mixed in a vortex mixer and let stand at room temperature for 30 minutes. At the end of incubation, 15 μL of transfection mix was added to the cells. The cells were maintained at 37° C. and 5% CO2 for 48 hours in 5% FBS.
(§3) Reporter Assays: Cells were harvested 40 hours after adding ligands. 125 μL of passive lysis buffer (part of Dual-Luciferase reporter assay system from Promega Corporation) were added to each well of the […] plate. The plates were placed on a rotary shaker for 15 minutes. Twenty μL of lysate were assayed. Luciferase activity was measured using Dual-Luciferase reporter assay system from Promega Corporation following the manufacturer's instructions. Fold induction (FI) activities were calculated by dividing relative light units (“RLU”) in ligand treated cells with RLU in DMSO treated cells (untreated control).

CfEcR-DEF mutant V96E = CfEcR-DEF mutant V96E (Choristoneura fumiferana, UniProt O77255, V379E); assay: cell-based
Chain of CfEcR-DEF mutant V96E (O77255 entry or part of it V379E): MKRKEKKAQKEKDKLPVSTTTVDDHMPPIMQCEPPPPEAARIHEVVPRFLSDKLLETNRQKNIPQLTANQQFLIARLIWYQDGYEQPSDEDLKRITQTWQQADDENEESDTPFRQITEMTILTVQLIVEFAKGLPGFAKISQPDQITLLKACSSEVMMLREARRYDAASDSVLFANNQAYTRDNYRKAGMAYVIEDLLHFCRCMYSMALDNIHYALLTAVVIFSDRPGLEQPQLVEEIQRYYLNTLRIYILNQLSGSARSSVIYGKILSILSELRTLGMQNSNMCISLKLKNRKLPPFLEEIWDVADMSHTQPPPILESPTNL
Chain of CfEcR-DEF mutant V96E (P28702 299-449, further chain): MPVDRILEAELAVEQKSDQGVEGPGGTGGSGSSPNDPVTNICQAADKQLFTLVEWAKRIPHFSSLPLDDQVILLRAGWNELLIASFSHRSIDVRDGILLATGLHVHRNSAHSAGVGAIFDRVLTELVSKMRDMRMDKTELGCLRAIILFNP
Procedure: as §1, §2, §3

CfEcR-DEF mutant W238E = CfEcR-DEF mutant W238E (Choristoneura fumiferana, UniProt O77255, W521E); assay: cell-based
Chain of CfEcR-DEF mutant W238E (P28702 299-449): as the sequence (P28702 299-449, further chain) above
Chain of CfEcR-DEF mutant W238E (O77255 entry or part of it W521E): as the sequence (O77255 entry or part of it V379E) above, with E161V, W303E counted along it
Procedure: as §1, §2, §3

CfEcR-DEF mutant F109M = CfEcR-DEF mutant F109M (Choristoneura fumiferana, UniProt O77255, F392M); assay: cell-based
Chain of CfEcR-DEF mutant F109M (O77255 entry or part of it F392M): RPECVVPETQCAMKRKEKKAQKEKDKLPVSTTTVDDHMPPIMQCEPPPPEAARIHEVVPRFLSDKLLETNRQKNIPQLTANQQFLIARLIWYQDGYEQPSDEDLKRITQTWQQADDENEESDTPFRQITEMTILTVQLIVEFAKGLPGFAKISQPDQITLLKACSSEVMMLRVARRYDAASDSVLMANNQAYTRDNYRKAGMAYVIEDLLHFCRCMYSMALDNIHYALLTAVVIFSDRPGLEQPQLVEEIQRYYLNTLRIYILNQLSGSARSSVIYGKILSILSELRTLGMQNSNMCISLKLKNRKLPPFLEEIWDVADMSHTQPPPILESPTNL
Chain of CfEcR-DEF mutant F109M (P28702 299-449, further chain): as the sequence (P28702 299-449, further chain) above
Procedure: as §1, §2, §3

CfEcR-DEF mutant Y120M = CfEcR-DEF mutant Y120M (Choristoneura fumiferana, UniProt O77255, Y403M); assay: cell-based
Chain of CfEcR-DEF mutant Y120M (O77255 entry or part of it Y403M): as the sequence (O77255 entry or part of it V379E) above, with E161V, Y185M counted along it
Chain of CfEcR-DEF mutant Y120M (P28702 299-449, further chain): as the sequence (P28702 299-449, further chain) above
Procedure: as §1, §2, §3

CfEcR-DEF mutant F48W = CfEcR-DEF mutant F48W (Choristoneura fumiferana, UniProt O77255, F331W); assay: cell-based
Chain of CfEcR-DEF mutant F48W (P28702 299-449): as the sequence (P28702 299-449, further chain) above
Chain of CfEcR-DEF mutant F48W (O77255 entry or part of it F331W): as the sequence (O77255 entry or part of it F392M) above, with F125W, M186F counted along it
Procedure: as §1, §2, §3

CfEcR-DEF mutant A110N = CfEcR-DEF mutant A110N (Choristoneura fumiferana, UniProt O77255, A393N); assay: cell-based
Chain of CfEcR-DEF mutant A110N (O77255 entry or part of it A393N): as the sequence (O77255 entry or part of it F392M) above, with M186F, A187N counted along it
Chain of CfEcR-DEF mutant A110N (P28702 299-449, stated change not applied, further chain): as the sequence (P28702 299-449, further chain) above
Procedure: as §1, §2, §3

CfEcR-DEF mutant T52P = CfEcR-DEF mutant T52P (Choristoneura fumiferana, UniProt O77255, T335P); assay: cell-based
Chain of CfEcR-DEF mutant T52P (P28702 298-449): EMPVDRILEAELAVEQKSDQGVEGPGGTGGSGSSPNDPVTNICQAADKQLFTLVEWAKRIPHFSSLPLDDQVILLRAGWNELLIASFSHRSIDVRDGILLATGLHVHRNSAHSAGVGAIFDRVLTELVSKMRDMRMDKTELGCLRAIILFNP
Chain of CfEcR-DEF mutant T52P (O77255 entry or part of it T335P): as the sequence (O77255 entry or part of it F392M) above, with T129P, M186F counted along it
Procedure: as §1, §2, §3

CfEcR-DEF mutant F48Y = CfEcR-DEF mutant F48Y (Choristoneura fumiferana, UniProt O77255, F331Y); assay: cell-based
Chain of CfEcR-DEF mutant F48Y (O77255 entry or part of it F331Y): as the sequence (O77255 entry or part of it F392M) above, with F125Y, M186F counted along it
Chain of CfEcR-DEF mutant F48Y (P28702 299-449, further chain): as the sequence (P28702 299-449, further chain) above
Procedure: as §1, §2, §3

CfEcR-DEF mutant V128F = CfEcR-DEF mutant V128F (Choristoneura fumiferana, UniProt O77255, V411F); assay: cell-based
Chain of CfEcR-DEF mutant V128F (P28702 299-449): as the sequence (P28702 299-449, further chain) above
Chain of CfEcR-DEF mutant V128F (O77255 entry or part of it V411F): as the sequence (O77255 entry or part of it V379E) above, with E161V, V193F counted along it
Procedure: as §1, §2, §3

[2] = NIH3T3, 40 h, read-out: Rel Max FI

Chain of CfEcR-DEF mutant V107I/Y127E/G (P28702 299-449, stated change not applied): as the sequence (P28702 299-449, further chain) above
Chain of CfEcR-DEF mutant V107I/Y127E/G (O77255 entry or part of it V390I/Y410E/INS541G): as the sequence (O77255 entry or part of it V379E) above, with E161V counted along it

SMILES: CCc1cccc(C(=O)NN(C(=O)c2cc(C)cc(C)c2)C(C)(C)C)c1C [RG-101691, 3,5-Dimethyl-benzoic acid N-tert-butyl-N′-(3-ethyl-2-methyl-benzoyl)-hydrazide]
- EC50 [1]: 0.02 µM
- Emax [1, 2]: 85%
- EC50 (CfEcR-DEF mutant V96E): 1.62 µM
- Emax (CfEcR-DEF mutant V96E; [2]): 81%
- EC50 (CfEcR-DEF mutant W238E): ~8 µM
- Emax (CfEcR-DEF mutant W238E; [2]): 71%
- EC50 (CfEcR-DEF mutant F109M): 0.65 µM
- Emax (CfEcR-DEF mutant F109M; [2]): 75%
- EC50 (CfEcR-DEF mutant Y120M): ~10 µM
- Emax (CfEcR-DEF mutant Y120M; [2]): 30%
- EC50 (CfEcR-DEF mutant F48W): 1.53 µM
- Emax (CfEcR-DEF mutant F48W; [2]): 74%
- EC50 (CfEcR-DEF mutant A110N): 0.88 µM
- Emax (CfEcR-DEF mutant A110N; [2]): 99%
- EC50 (CfEcR-DEF mutant T52P): > 33 µM
- Emax (CfEcR-DEF mutant T52P; [2]): 2%
- EC50 (CfEcR-DEF mutant F48Y): 0.93 µM
- Emax (CfEcR-DEF mutant F48Y; [2]): 69%
- EC50 (CfEcR-DEF mutant V128F; EC50, mutant V128F): ~8.3 µM and 5.4 µM
- Emax (CfEcR-DEF mutant V128F; [2]): 4%

Source: patent US9163256B2, “Mutant receptors and their use in a nuclear receptor-based inducible gene expression system” (priority 2004, dated 2015)
